{"source": "patent EP1144011B1", "about": "“PRODRUG COMPOUNDS AND PROCESS FOR PREPARATION THEREOF” (Coulter Pharmaceutical, Inc., priority 1998, dated 2000)", "key": {"Carcinoma cell trouase": {"tested_on": "Carcinoma cell trouase", "assay": "Inhibition and re-activation of carcinoma cell trouase", "assay_type": "biochemical", "settings": "for inhibition of trouase: carcinoma cell trouase"}, "[1]": {"assay": "Aggregation: filtration through Centricon filter units of different MWCO", "assay_type": "physicochemical", "settings": "17.4 µMol/ml in distilled water, 2 hr at 1500g; for 3000 MWCO Filt.: quantitated at λ475 nm", "source_text": "Sci., 73(6):766-770 (1984). Confalonieri, C. et al., The use of new laser particle sizer and shape analyser to detect and evaluate gelatinous microparticles suspended in reconstituted anthracycline infusion solutions, J. Pharmaceut. Biomed. Anal., 9(1):1-8 (1991). […] Each filter unit was centrifuged for 2 hr at 1500g force. […]"}, "[2]": {"tested_on": "LS-174T human colorectal carcinoma", "assay": "Nude mouse xenograft model, LS-174T", "settings": "repeated administration"}, "trouase": {"tested_on": "trouase", "assay": "Trouase cleavage of N-capped peptidyl-daunorubicin (defining characteristic)", "assay_type": "biochemical", "settings": "under appropriate assay conditions", "source_text": "Trouase is the enzyme which is thought to be critical for specific activation of prodrug at the target tissue."}, "[3]": {"assay": "Acute toxicity after intravenous injection in mice", "assay_type": "in vivo", "settings": "iv bolus of 250 mg/kg (Dox-HCl eq.), three to five mice per group"}}, "note": "Square brackets hold non-standard residues; d marks the D form. Peptide text beside a SMILES is read from it. * marks the point of attachment. Sta = CC(C)C[C@H](N)[C@@H](O)CC(=O)O; Isovaleryl = CC(C)CC(=O)*"}
{"compound": "O=C(O)CN(CCN(CC(=O)O)CC(=O)O)CC(=O)O", "note": "[EDTA]", "values": [{"measurement": "inhibition of trouase", "setting": "Carcinoma cell trouase", "value": "inhibited"}]}
{"compound": "CO[C@@H]1[C@H](OC(=O)/C=C/C=C/C=C/C=C/C(=O)O)CC[C@]2(CO2)[C@H]1[C@@]1(C)O[C@@H]1CC=C(C)C", "note": "[fumagillin]", "values": [{"measurement": "inhibition of trouase", "setting": "Carcinoma cell trouase", "value": "not"}]}
{"compound": "c1cnc2c(c1)ccc1cccnc12", "note": "[1,10-phenanthroline]", "values": [{"measurement": "inhibition of trouase", "setting": "Carcinoma cell trouase", "value": "inhibited"}]}
{"compound": "manganese", "values": [{"measurement": "concentration that re-activates EDTA inactivated trouase", "setting": "Carcinoma cell trouase", "value": "50 to 1000", "unit": "µM"}]}
{"compound": "aminoethylbenzene-sufonate", "values": [{"measurement": "inhibition of trouase", "setting": "Carcinoma cell trouase", "value": "not"}]}
{"compound": "COc1cccc2c1C(=O)c1c(O)c3c(c(O)c1C2=O)C[C@@](O)(C(=O)CO)C[C@@H]3O[C@H]1C[C@H](N)[C@H](O)[C@H](C)O1", "note": "[doxorubicin]", "values": [{"measurement": "3000 MWCO Filt.", "setting": "[1]; passing through filter", "value": 81, "unit": "%"}, {"measurement": "3000 MWCO Filt.", "setting": "[1]; passing through filter, listed as Dox", "value": 81, "unit": "%"}, {"measurement": "10000 MWCO Filt.", "setting": "[1]; passing through filter", "value": 82, "unit": "%"}, {"measurement": "50000 MWCO Filt.", "setting": "[1]; passing through filter", "value": 93, "unit": "%"}, {"measurement": "3000 MWCO Ret.", "setting": "[1]; retained", "value": 10, "unit": "%"}, {"measurement": "10000 MWCO Ret.", "setting": "[1]; retained", "value": 2, "unit": "%"}, {"measurement": "50000 MWCO Ret.", "setting": "[1]; retained", "value": 0.5, "unit": "%"}, {"measurement": "Dose limiting toxicity (cardiotoxicity and myelosuppression), dose at which observed", "setting": "[2]", "value": "≥ 3", "unit": "mg/kg"}]}
{"compound": "CC(=O)N[C@@H](CC(C)C)C(=O)N[C@@H](CC(C)C)C(=O)N[C@H](C=O)CCCNC(=N)N", "note": "[leupeptin]", "values": [{"measurement": "inhibition of trouase", "setting": "Carcinoma cell trouase", "value": "not"}]}
{"compound": "cupric cations", "values": [{"measurement": "re-activation of EDTA inactivated trouase", "setting": "Carcinoma cell trouase", "value": "not"}]}
{"compound": "cobalt", "values": [{"measurement": "concentration that re-activates EDTA inactivated trouase", "setting": "Carcinoma cell trouase", "value": "50 to 100", "unit": "µM"}]}
{"compound": "CCCNC(=O)[C@H]1O[C@@H]1C(=O)N[C@H](C(=O)N1CCC[C@H]1C(=O)O)[C@@H](C)CC", "note": "[CA074]", "values": [{"measurement": "inhibition of trouase", "setting": "Carcinoma cell trouase", "value": "not"}]}
{"compound": "COc1cccc2c1C(=O)c1c(O)c3c(c(O)c1C2=O)C[C@@](O)(C(C)=O)C[C@@H]3O[C@H]1C[C@H](NC(=O)[C@H](CC(C)C)NC(=O)[C@H](C)NC(=O)[C@H](CC(C)C)NC(=O)CCNC(=O)CCC(=O)O)[C@H](O)[C@H](C)O1", "note": "[succinyl-βAlaLeuAlaLeu-Daunorubicin, Suc-β-Ala-Leu-Ala-Leu-Dnr]", "values": [{"measurement": "cleavage by trouase", "setting": "trouase", "value": "readily cleaves"}]}
{"compound": "CC(C)CC(=O)N[C@H](C(=O)N[C@H](C(=O)N[C@@H](CC(C)C)[C@@H](O)CC(=O)N[C@@H](C)C(=O)N[C@@H](CC(C)C)[C@@H](O)CC(=O)O)C(C)C)C(C)C", "note": "[pepstatin] (Isovaleryl-VV[Sta]A[Sta]-OH)", "values": [{"measurement": "inhibition of trouase", "setting": "Carcinoma cell trouase", "value": "not"}]}
{"compound": "CC[C@H](C)[C@H](NC(=O)CCNC(=O)CCC(=O)O)C(=O)N[C@@H](C)C(=O)N[C@@H](CC(C)C)C(=O)N[C@H]1C[C@H](O[C@H]2C[C@](O)(C(C)=O)Cc3c(O)c4c(c(O)c32)C(=O)c2c(OC)cccc2C4=O)O[C@@H](C)[C@H]1O", "note": "[succinyl-βAlalleAlaLeu-Daunorubicin]", "values": [{"measurement": "trouase activity relative to succinyl-βAlaLeuAlaLeu-Daunorubicin", "setting": "trouase", "value": "at least twenty-fold less active"}]}
{"compound": "zinc", "values": [{"measurement": "re-activation of EDTA inactivated trouase", "setting": "Carcinoma cell trouase", "value": "not"}]}
{"compound": "CC(C)C[C@H](NC(=O)[C@H]1O[C@@H]1C(=O)O)C(=O)NCCCCN=C(N)N", "note": "[E64]", "values": [{"measurement": "inhibition of trouase", "setting": "Carcinoma cell trouase", "value": "not"}]}
{"compound": "COc1cccc2c1C(=O)c1c(O)c3c(c(O)c1C2=O)CC(O)(C(=O)CO)CC3OC1CC(NC(=O)C(CC(C)C)NC(=O)C(C)NC(=O)C(CC(C)C)NC(=O)CCNC(=O)CCCC(=O)O)C(O)C(C)O1", "note": "(stereo not drawn) [glutaryl βAlaLeuAlaLeu-Dox, Gl-β-Ala-Leu-Ala-Leu-Dox]", "values": [{"measurement": "survival", "setting": "[3]", "value": "all animals survived up to 8 days"}]}
